Assay results as given in patent publication US20260022098A1, “BULLEYACONITINE A DERIVATIVE WITH ANALGESIC ACTIVITY, AND PREPARATION METHOD AND APPLICATION THEREOF” (priority 2023, published 2026).
Like-named read-outs stand apart in the source and are kept apart here.

Key:
[1] = system: Kunming mice; test: Analgesic activity by acetic acid-induced writhing method (writhing inhibition rate, ED50); type: in vivo; settings: mice, subcutaneous; for ED50: Probit regression
Summary of the method: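 Kunming mice (22±2 g, 1:1 sex, 12 h fasted, 10/group) got compound s.c. (dissolved 1:1 molar with 0.1 mol/L HCl, diluted in saline); 0.7% acetic acid i.p. 15 min later, writhes counted over 15 min. Inhibition rate vs saline blank; ED50 by Probit regression over ≥5 doses.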

[2] = Acute toxicity / median lethal dose (LD50) determination, subcutaneous injection; type: in vivo, mice; set-up: key to Acute toxicity: if death occurred, (+) represented as positive; if no death occurred, (−) represented as negative; settings: both sexes, Kunming, mouse, in vivo, sc; mice, subcutaneous, survival within 24 h, Probit regression; >X = no death or toxic symptoms at X mg/kg
Summary of the method: (§1)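 Kunming mice (22±2 g, 1:1 male:female, fasted 12 h), 10 per group, given compound subcutaneously at 0.1 mL/10 g in saline after 1:1 molar dissolution in 0.1 mol/L HCl. At least 5 proportional dose groups set from a 20 mg/kg pilot; 24 h survival, LD50 by Probit regression.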

[3] = system: Kunming mice; test: as above; type: in vivo; set-up: key to Acute toxicity: if death occurred, (+) represented as positive; if no death occurred, (−) represented as negative; settings: for Acute toxicity: mice administered 20 mg/kg subcutaneously, presence of death within 24 h
Summary of the method: as §1

[4] = system: Kunming mice; test: Calculation of therapeutic index (TI = LD50/ED50); type: in vivo
Protocol: (3) Calculation of Therapeutic Index (TI)
The therapeutic index of each compound was calculated based on the median effective dose and the median lethal dose, which were specifically as follows: therapeutic index (TI)=median lethal dose (LD50)/median effective dose (ED50).

[5] = system: RAW 264.7 cells; test: MTT assay, viability of RAW 264.7 cells; type: cell-based; settings: compound diluted to 30 mol/L (so in the source), 12 h
Protocol: (§2) The effect of the compound to be tested on viability of RAW 264.7 cells at a concentration of […] was assessed through MTT assay (Methylthiazolyldiphenyl-tetrazolium bromide assay), and the inhibition on NO release in the inflammatory response of LPS-induced RAW 264.7 cells at 30 µM was determined through Griess method. Specific methods were described as follows.
An MTT solution (5 mg/mL) was prepared with a PBS buffer, filter-sterilized through a 0.22 μm filter membrane, and stored protected from light at low temperature. Each compound was dissolved in DMSO to prepare a 50 mmol/L stock solution, and stored from light at low (frozen) temperature. The stock solution was diluted to 30 mol/L with DMEM (Dulbecco's modified Eagle's medium) containing 10% FBS (fetal bovine serum). RAW264.7 cells beyond third passage were added to a culture medium and gently pipetted to detach, forming a cell suspension. 10 μL of the cell suspension was applied onto a hemocytometer slide for counting, and cells were seeded into 96-well plates at a density of 6×10^3 cells per well with 100 μL of the cell suspension per well. After incubated at 37° C. with 5% CO2 for 24 h, supernatant was removed. A zero-adjustment group (CO group) received 100 μL of medium per well, the blank group (CK group) received 100 μL of DMSO (1/1000 dilution) per well, and the experimental groups received 100 μL of the test samples per well. After 12 h, supernatant was removed, and […] of MTT solution was added into each well at 120 μL per well. After incubated in COz at a constant temperature for 4 h, supernatant was removed, and DMSO was added into each well by 150 μL per well. The mixture was shaken at 50 r/min for 10 min and subjected to an absorbance test at 492 nm. Relative cell viability (x) was calculated through a formula as follows: relative cell viability (%)=(ODTest−ODCO)/(ODCK−ODCO)×100%.

[6] = system: LPS-induced RAW 264.7 cells; test: Griess assay, inhibition of NO release in LPS-induced RAW 264.7 cells; type: cell-based; settings: Griess method, compound at 30 M (so in the source), 22 h
Protocol: as §2
RAW264.7 cells beyond third passage were added to a culture medium and gently pipetted to detach, forming a cell suspension. 10 μL of the cell suspension was applied onto a hemocytometer slide for counting, and cells were seeded into a 96-well plate at a density of 3×10^4 cells per well with 100 μL of the cell suspension per well. After incubated at 37° C. with […] for 24 h, supernatant was removed. The blank group received 100 μL of DMSO (1/1000 dilution) per well, a LPS (lipopolysaccharide) group received 100 μL of DMSO (1/1000 dilution) per well, and the experimental groups received 100 μL of the test samples per well. The LPS group received 1 μg/ml of LPS by […] per well, and the experimental groups received […] of LPS by 3 μg per well. After 22 h, 50 μL of supernatant was transferred into another 96-well plate, added with Griess Reagent I in a NO assay kit by 50 μL per well, then added with Griess Reagent II by 50 μL per well, and subjected to an absorbance test at 562 nm. Nitric oxide (NO) concentration was calculated based on a standard curve, which was specifically as follows: NO inhibition rate (%)=(ODLPS−ODTest)/(ODLPS−ODBlank)×100).

[7] = system: Kunming mice; settings: reported value used as preliminary screening concentration; cited from earlier work
[8] = Mus musculus, sc, acetic acid-induced writhing, read-out: ED50
[9] = Mus musculus, sc, dosing concentration 0.05 mg/kg, acetic acid-induced writhing, read-out: Analgesia rate (%) ± SEM

| Compound | ED50 [1, 8] [mg/kg] | inhibition in vivo at 0.05 mg/kg [1, 9] [%] | LD50 [2] [mg/kg] | Acute toxicity [3] | TI [4] | RAW cell viability [5] | Inflammatory NO inhibition rate [6] [%] | ED50 ([1]; acetic acid-induced writhing) [mg/kg] | Analgesia rate (%) ± SEM ([1]; dosing concentration 0.05 mg/kg, acetic acid-induced writhing) [%] | Analgesia rate: unable to test owing to significant toxicity or death in mice ([1]; dosing concentration 0.5 mg/kg) | LD50 ([3]; mice, subcutaneous, survival within 24 h, Probit regression, >X = no death or toxic symptoms at X mg/kg) [mg/kg] | reported median effective dose (ED50) [7] [mg/kg] | inhibition in vivo at 0.5 mg/kg ([1]; Mus musculus, sc, dosing concentration 0.5 mg/kg, acetic acid-induced writhing, read-out: Analgesia rate (%) ± SEM) [%] |
| --- | --- | --- | --- | --- | --- | --- | --- | --- | --- | --- | --- | --- | --- |
| CCO[C@]12C[C@H](OC)[C@@]3(OC(=O)c4cccnc4)CC(C1[C@H]3OC(=O)c1cccnc1)[C@]13C4[C@@H](OC)C2[C@H]1N(CC)C[C@]4(COC)CC[C@@H]3OC (stereo partly drawn) [Compound 27] | 0.033 | 62 ± 1.6 | > 600 | − | >18181.8 | 87.20 ± 7.66 ^ % | 7 ± 2.16 |  |  |  |  |  |  |
| CCO[C@]12C[C@H](OC)[C@@]3(OC(=O)c4ccco4)CC(C1[C@H]3OC(=O)c1ccc(OC)cc1)[C@]13C4[C@@H](OC)C2[C@H]1N(CC)C[C@]4(COC)CC[C@@H]3OC (stereo partly drawn) [Compound 15] | 0.073 | 57.6 ± 1.3 | 56.4 | − | 773 | 104.18 ± 6.16 ns % | 5 ± 2.17 |  |  |  |  |  |  |
| Bulleyaconitine A [reference compound] |  |  |  | + | 19.2 | 85.80 ± 7.31 ^ % | 13 ± 6.84 | 0.048 | 54.80 ± 1.8 | −^a | 0.92 | 0.05 |  |
| CCO[C@]12C[C@H](OC)[C@@]3(OC(=O)c4ccccc4F)CC(C1[C@H]3OC(=O)c1ccccc1F)[C@]13C4[C@@H](OC)C2[C@H]1N(CC)C[C@]4(COC)CC[C@@H]3OC (stereo partly drawn) [Compound 69] | 0.106 | 40.3 ± 0.7 | > 100 | − | >943.4 | 95.11 ± 5.66 ns % | 40 ± 3.46 |  |  |  |  |  | 60.6 ± 1.9 |
| CCO[C@]12C[C@H](OC)[C@@]3(OC(=O)c4ccco4)CC(C1[C@H]3OC(=O)c1ccco1)[C@]13C4[C@@H](OC)C2[C@H]1N(CC)C[C@]4(COC)CC[C@@H]3OC (stereo partly drawn) [Compound 6] | 0.069 | 59.8 ± 2.3 | > 600 | − | >8695.7 | 92.23 ± 1.29 ns % | 22 ± 4.41 |  |  |  |  |  |  |
| CCO[C@]12C[C@H](OC)[C@@]3(OC(=O)c4ccc(F)cc4)CC(C1[C@H]3OC(=O)c1ccc(OC)cc1)[C@]13C4[C@@H](OC)C2[C@H]1N(CC)C[C@]4(COC)CC[C@@H]3OC (stereo partly drawn) [Compound 60] | 0.122 | 50 ± 1.4 | > 100 | − | >819.7 | 96.09 ± 7.95 ns % | 2 ± 2.82 |  |  |  |  |  |  |
